Source: US20230346670A1, “Prebiotic Oral Care Compositions and Methods” (Colgate-Palmolive Company, priority 2020, published 2023)
Marks after values point to notes of the source that are not given here.

What was measured:
Type in all cases: cell-based
A. viscosus = experiment: Multi-species biofilm composition, absolute abundance (Geq/mL); details: repeated rinsing
F. nucleatum = experiment: as above; details: repeated rinsing
In short: (§1)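 Biofilms grown vertically on CAD-HA disks in the Amsterdam Active Adhesion model, 24 h at 37° C., 170 rpm, microaerophilic (6% O2, 7% CO2, 7% H2, 80% N2). Then rinsed 3 times a day for 3 minutes at 1 M substrate for 3 days; PBS (pH 5.7) control. Values are log(Geq/mL), mean ± SD, n = 3.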

S. mutans = experiment: as above; details: repeated rinsing
S. salivarius = experiment: as above; details: repeated rinsing
S. sanguinis = experiment: as above; details: repeated rinsing
In short: as §1

V. parvula = experiment: as above; details: repeated rinsing
[1] = tested on: A. actinomycetemcomitans virulence genes; experiment: Virulence gene expression in multi-species biofilm (SYBR RT-qPCR)
In short: (§2)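 Multi-species biofilms on hydroxyapatite disks were grown 24 h under microaerophilic conditions at 37 °C, then rinsed three times daily for 3 min over 3 days with substrate in PBS at 1 M or 1% (w/v); PBS pH 5.7 served as control. Virulence gene expression was measured by SYBR RT-qPCR normalized to housekeeping genes, giving 2^-ΔΔCt fold change versus control as geometric mean (n = 3).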

[2] = tested on: P. gingivalis virulence genes; experiment: as above; details: for fold change in fimA expression, geometric mean (95% C.I.) / fold change in kgp expression, geometric mean (95% C.I.) / fold change in partC expression, geometric mean (95% C.I.) / fold change in rgpA expression, geometric mean (95% C.I.): relative to control, 2^-ΔΔCt, n = 3
In short: as §2

[3] = tested on: F. nucleatum virulence genes; experiment: as above; details: for fold change in ABC transp. perm. (ABC transporter permease) expression, geometric mean (95% C.I.) / fold change in EF-G expression, geometric mean (95% C.I.) / fold change in but. -coA transf. (butyrate-acetoacetate CoA-transferase) expression, geometric mean (95% C.I.) / fold change in hemin receptor expression, geometric mean (95% C.I.) / fold change in hemolysin expression, geometric mean (95% C.I.) / fold change in ompA expression, geometric mean (95% C.I.) / fold change in transposase expression, geometric mean (95% C.I.): relative to control = 1, 2^-ΔΔCt, n = 3
In short: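 Multi-species biofilms on CAD-HA disks (Amsterdam Active Adhesion model) established 24 h at 37° C. under microaerophilic conditions, then rinsed 3 min three times daily for 3 days with substrate (1 M or 1% (w/v) in PBS); PBS pH 5.7 control. 33 virulence genes from 4 periodontal pathogens quantified by SYBR RT-qPCR, housekeeping-normalized; fold change by 2^-ΔΔCt, geometric mean (n = 3).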

[4] = tested on: human oral keratinocytes (HOK-18A); experiment: Inflammatory mediator gene expression in keratinocytes exposed to substrate-treated biofilms (SYBR RT-qPCR); details: relative to control, n = 3
In short: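 HOK-18A keratinocytes were exposed to multi-species biofilms treated with substrates dissolved in PBS at 1 M or 1% (w/v). Inflammatory mediator expression was measured by SYBR RT-qPCR against β-actin, with fold change versus control by 2^-ΔΔCt, reported as geometric mean (n = 3).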

[5] = lower part of Table 6a, substrate 1%(w/v), relative to control = 1
[6] = substrate 1 M, relative to control = 1, 2^-ΔΔCt, n = 3
[7] = HOK-18A exposed to biofilms treated with substrate 1% (w/v)
[8] = HOK-18A exposed to biofilms treated with substrate 1 M

SMILES: CC(=O)N[C@H]1C(O)O[C@H](CO)[C@@H](O)[C@@H]1O (stereo partly drawn) [NADG, N-acetyl-D-glucosamine]
- absolute abundance of A. viscosus (Av), mean ± SD log (Geq/mL) (A. viscosus; substrate 1% (w/v)): 7.83 ± 0.31 log (Geq/mL)
- absolute abundance of A. viscosus (Av), mean ± SD log (Geq/mL) (A. viscosus; substrate 1 M in PBS, n = 3): 6.72 ± 0.22 log (Geq/mL)
- absolute abundance of F. nucleatum (Fn), mean ± SD log (Geq/mL) (F. nucleatum; substrate 1% (w/v)): 9.41 ± 0.19 log (Geq/mL)
- absolute abundance of F. nucleatum (Fn), mean ± SD log (Geq/mL) (F. nucleatum; substrate 1 M in PBS, n = 3): 7.22 ± 0.28^∗ log (Geq/mL)
- absolute abundance of S. mutans, mean ± SD log (Geq/mL) (S. mutans; substrate 1% (w/v)): 7.83 ± 0.23 log (Geq/mL)
- absolute abundance of S. mutans, mean ± SD log (Geq/mL) (S. mutans; substrate 1 M in PBS, n = 3): 7.96 ± 0.10 log (Geq/mL)
- absolute abundance of S. salivarius, mean ± SD log (Geq/mL) (S. salivarius; substrate 1% (w/v)): 2.65 ± 0.00 log (Geq/mL)
- absolute abundance of S. salivarius, mean ± SD log (Geq/mL) (S. salivarius; substrate 1 M in PBS, n = 3): 6.40 ± 0.29^∗ log (Geq/mL)
- absolute abundance of S. sanguinis, mean ± SD log (Geq/mL) (S. sanguinis; substrate 1% (w/v)): 8.40 ± 0.11 log (Geq/mL)
- absolute abundance of S. sanguinis, mean ± SD log (Geq/mL) (S. sanguinis; substrate 1 M in PBS, n = 3): 6.43 ± 0.94 log (Geq/mL)
- absolute abundance of V. parvula (VP), mean ± SD log (Geq/mL) (V. parvula; substrate 1% (w/v)): 9.77 ± 0.19 log (Geq/mL)
- absolute abundance of V. parvula (VP), mean ± SD log (Geq/mL) (V. parvula; substrate 1 M in PBS, n = 3): 9.91 ± 0.19 log (Geq/mL)
- fold change in aae expression, geometric mean (95% C.I.) [1, 5]: 1.55 (1.18-2.03) fold
- fold change in apaH expression, geometric mean (95% C.I.) [1, 5]: 0.73 (0.41-1.29) fold
- fold change in cdtB expression, geometric mean (95% C.I.) [1, 5]: 1.05 (0.61-1.81) fold
- fold change in emaA expression, geometric mean (95% C.I.) [1, 5]: 0.68 (0.15-3.07) fold
- fold change in flp expression, geometric mean (95% C.I.) [1, 5]: 0.54 (0.19-1.56) fold
- fold change in ltxA expression, geometric mean (95% C.I.) [1, 5]: 0.4 (0.11-1.39) fold
- fold change in omp29 expression, geometric mean (95% C.I.) [1, 5]: 0.77 (0.69-0.87) fold
- fold change in omp100 expression, geometric mean (95% C.I.) [1, 5]: 0.71 (0.42-1.18) fold
- fold change in orf859 expression, geometric mean (95% C.I.) [1, 5]: 1.99 (0.94-4.22)* fold
- fold change in pgA expression, geometric mean (95% C.I.) [1, 5]: 1.07 (0.29-3.97) fold
- fold change in vapA expression, geometric mean (95% C.I.) [1, 5]: 0.65 (0.48-0.86) fold
- fold change in vppA expression, geometric mean (95% C.I.) [1, 5]: 0.28 (0.09-0.86)* fold
- fold change in aae expression, geometric mean (95% C.I.) [1, 6]: 0.24 (0.18-0.33)^∗ fold
- fold change in apaH expression, geometric mean (95% C.I.) [1, 6]: 0.08 (0.02-0.29)^∗ fold
- fold change in cdtB expression, geometric mean (95% C.I.) [1, 6]: 0.04 (0.01-0.20)* fold
- fold change in emaA expression, geometric mean (95% C.I.) [1, 6]: 0.29 (0.07-1.20)* fold
- fold change in flp expression, geometric mean (95% C.I.) [1, 6]: 2.40 (0.67-8.67) fold
- fold change in ltxA expression, geometric mean (95% C.I.) [1, 6]: 0.01 (0.00-0.20)* fold
- fold change in omp29 expression, geometric mean (95% C.I.) [1, 6]: 0.19 (0.09-0.38)* fold
- fold change in omp100 expression, geometric mean (95% C.I.) [1, 6]: 0.03 (0.01-0.05)* fold
- fold change in orf859 expression, geometric mean (95% C.I.) [1, 6]: 0.13 (0.05-0.36)* fold
- fold change in pgA expression, geometric mean (95% C.I.) [1, 6]: 11.6 (3.23-41.74)* fold
- fold change in vapA expression, geometric mean (95% C.I.) [1, 6]: 1.00 (0.58-1.75) fold
- fold change in vppA expression, geometric mean (95% C.I.) [1, 6]: 0.49 (0.41-0.59) fold
- downregulation of P. gingivalis partC expression ([2]; substrate 1% (w/v)): approximately 2.8 fold
- fold change in fimA expression, geometric mean (95% C.I.) ([2]; substrate 1 % (w/v)): 1.15 (0.32-4.06) fold
- fold change in kgp expression, geometric mean (95% C.I.) ([2]; substrate 1 % (w/v)): 1.81 (0.44-7.50) fold
- fold change in partC expression, geometric mean (95% C.I.) ([2]; substrate 1 % (w/v)): 0.36 (0.08-1.68)^∗ fold
- fold change in rgpA expression, geometric mean (95% C.I.) ([2]; substrate 1 % (w/v)): 1.31 (1.03-1.66) fold
- fold change in fimA expression, geometric mean (95% C.I.) ([2]; substrate 1 M): 0.79 (0.44-1.39) fold
- fold change in kgp expression, geometric mean (95% C.I.) ([2]; substrate 1 M): 0.07 (0.04-0.13)^∗ fold
- fold change in partC expression, geometric mean (95% C.I.) ([2]; substrate 1 M): 0.19 (0.13-0.28)^∗ fold
- fold change in rgpA expression, geometric mean (95% C.I.) ([2]; substrate 1 M): 0.39 (0.18-0.84) fold
- fold change in ABC transp. perm. (ABC transporter permease) expression, geometric mean (95% C.I.) ([3]; substrate 1% (w/v)): 0.33 (0.12-0.87)^∗ fold
- fold change in EF-G expression, geometric mean (95% C.I.) ([3]; substrate 1% (w/v)): 0.10 (0.02-0.45)^∗ fold
- fold change in but. -coA transf. (butyrate-acetoacetate CoA-transferase) expression, geometric mean (95% C.I.) ([3]; substrate 1% (w/v)): 0.21 (0.11-0.39)^∗ fold
- fold change in hemin receptor expression, geometric mean (95% C.I.) ([3]; substrate 1% (w/v)): 0.19 (0.02-1.67)^∗ fold
- fold change in hemolysin expression, geometric mean (95% C.I.) ([3]; substrate 1% (w/v)): 0.79 (0.30-2.04) fold
- fold change in ompA expression, geometric mean (95% C.I.) ([3]; substrate 1% (w/v)): 0.74 (0.18-2.98) fold
- fold change in transposase expression, geometric mean (95% C.I.) ([3]; substrate 1% (w/v)): 0.98 (0.18-5.39) fold
- upregulation of F. nucleatum virulence gene expression, range over genes ([3]; substrate 1 M): more limited and only significant for 2 genes
- fold change in ABC transp. perm. (ABC transporter permease) expression, geometric mean (95% C.I.) ([3]; substrate 1 M): 3.33 (2.53-4.39)^∗ fold
- fold change in EF-G expression, geometric mean (95% C.I.) ([3]; substrate 1 M): 1.45 (0.93-2.26) fold
- fold change in but. -coA transf. (butyrate-acetoacetate CoA-transferase) expression, geometric mean (95% C.I.) ([3]; substrate 1 M): 1.21 (0.99-1.49) fold
- fold change in hemin receptor expression, geometric mean (95% C.I.) ([3]; substrate 1 M): 3.26 (2.24-4.76)^∗ fold
- fold change in hemolysin expression, geometric mean (95% C.I.) ([3]; substrate 1 M): 1.90 (1.29-2.79) fold
- fold change in ompA expression, geometric mean (95% C.I.) ([3]; substrate 1 M): 1.33 (0.78-2.25) fold
- fold change in transposase expression, geometric mean (95% C.I.) ([3]; substrate 1 M): 1.27 (0.68-2.37) fold
- fold change in IL-1β gene expression, geometric mean (C.I.) [4, 7]: 0.71 (0.38-1.33)^∗ fold
- fold change in IL-6 gene expression, geometric mean (C.I.) [4, 7]: 0.73 (0.58-0.93)^∗ fold
- fold change in IL-8 gene expression, geometric mean (C.I.) [4, 7]: 1.00 (0.78-1.27) fold
- fold change in MMP-8 gene expression, geometric mean (C.I.) [4, 7]: 0.52 (0.17-1.6)^∗ fold
- fold change in TNF-α gene expression, geometric mean (C.I.) [4, 7]: 0.71 (0.28-1.35)^∗ fold
- fold change in IL-1β gene expression, geometric mean (C.I.) [4, 8]: 0.75 (0.55-1.02) fold
- fold change in IL-6 gene expression, geometric mean (C.I.) [4, 8]: 0.57 (0.46-0.71) fold
- fold change in IL-8 gene expression, geometric mean (C.I.) [4, 8]: 0.14 (0.06-0.36)^∗ fold
- fold change in MMP-8 gene expression, geometric mean (C.I.) [4, 8]: 1.28 (0.79-2.08) fold
- fold change in TNF-α gene expression, geometric mean (C.I.) [4, 8]: 0.89 (0.59-1.34) fold
